Literature values as cited in patent publication US12404348B2, “Bifunctional chimeric molecules for labeling of kinases with target binding moieties and methods of use thereof” (The Brigham and Women's Hospital, Inc., priority 2021, dated 2025).
Read-outs that look alike come from different tables or passages of the source. One block for each compound: values may come before it.

How the values were obtained:
PDK1 [1] = target: T1, PDK1 (Homo sapiens, UniProt O15530)
T1 sequence (O15530 1-556): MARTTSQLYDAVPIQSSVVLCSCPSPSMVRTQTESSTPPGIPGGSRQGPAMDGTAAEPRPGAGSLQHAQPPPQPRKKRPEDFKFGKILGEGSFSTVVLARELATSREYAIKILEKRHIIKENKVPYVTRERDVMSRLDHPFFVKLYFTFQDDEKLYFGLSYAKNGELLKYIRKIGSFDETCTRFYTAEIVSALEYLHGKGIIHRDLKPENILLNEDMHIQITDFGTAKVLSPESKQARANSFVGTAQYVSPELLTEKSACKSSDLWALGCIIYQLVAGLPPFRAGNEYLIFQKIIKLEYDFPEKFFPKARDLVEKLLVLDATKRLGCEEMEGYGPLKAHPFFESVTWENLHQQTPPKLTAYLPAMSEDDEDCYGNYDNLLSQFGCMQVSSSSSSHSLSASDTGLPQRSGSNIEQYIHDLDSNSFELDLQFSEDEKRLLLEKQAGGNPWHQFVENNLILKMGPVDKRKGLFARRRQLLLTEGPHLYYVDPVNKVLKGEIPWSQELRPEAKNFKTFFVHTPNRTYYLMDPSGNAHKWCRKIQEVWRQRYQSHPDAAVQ

PKCl = target: T2, PKCl (Homo sapiens, UniProt P41743)
T2 sequence (P41743 1-596): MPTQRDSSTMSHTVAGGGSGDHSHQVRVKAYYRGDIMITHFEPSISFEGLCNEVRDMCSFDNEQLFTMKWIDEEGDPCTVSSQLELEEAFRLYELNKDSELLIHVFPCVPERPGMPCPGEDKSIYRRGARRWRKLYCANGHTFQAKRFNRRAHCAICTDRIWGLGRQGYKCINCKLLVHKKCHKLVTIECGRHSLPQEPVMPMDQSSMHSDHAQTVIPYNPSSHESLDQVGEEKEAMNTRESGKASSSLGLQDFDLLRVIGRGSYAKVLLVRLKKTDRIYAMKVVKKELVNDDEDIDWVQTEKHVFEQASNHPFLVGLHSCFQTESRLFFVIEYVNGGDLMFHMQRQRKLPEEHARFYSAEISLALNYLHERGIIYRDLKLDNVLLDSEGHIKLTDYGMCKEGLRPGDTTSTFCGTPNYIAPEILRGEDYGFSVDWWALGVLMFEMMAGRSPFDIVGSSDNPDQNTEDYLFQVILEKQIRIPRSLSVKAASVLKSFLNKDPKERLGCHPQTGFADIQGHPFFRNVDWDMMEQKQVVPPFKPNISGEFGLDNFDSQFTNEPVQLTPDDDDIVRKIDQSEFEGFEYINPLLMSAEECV

NF-κB Pathway = conditions: 5 μM, U(37 cells)
Recombinant PKCζ = target: T3, Recombinant PKCζ (Homo sapiens, UniProt Q05513)
T3 sequence (Q05513 1-592): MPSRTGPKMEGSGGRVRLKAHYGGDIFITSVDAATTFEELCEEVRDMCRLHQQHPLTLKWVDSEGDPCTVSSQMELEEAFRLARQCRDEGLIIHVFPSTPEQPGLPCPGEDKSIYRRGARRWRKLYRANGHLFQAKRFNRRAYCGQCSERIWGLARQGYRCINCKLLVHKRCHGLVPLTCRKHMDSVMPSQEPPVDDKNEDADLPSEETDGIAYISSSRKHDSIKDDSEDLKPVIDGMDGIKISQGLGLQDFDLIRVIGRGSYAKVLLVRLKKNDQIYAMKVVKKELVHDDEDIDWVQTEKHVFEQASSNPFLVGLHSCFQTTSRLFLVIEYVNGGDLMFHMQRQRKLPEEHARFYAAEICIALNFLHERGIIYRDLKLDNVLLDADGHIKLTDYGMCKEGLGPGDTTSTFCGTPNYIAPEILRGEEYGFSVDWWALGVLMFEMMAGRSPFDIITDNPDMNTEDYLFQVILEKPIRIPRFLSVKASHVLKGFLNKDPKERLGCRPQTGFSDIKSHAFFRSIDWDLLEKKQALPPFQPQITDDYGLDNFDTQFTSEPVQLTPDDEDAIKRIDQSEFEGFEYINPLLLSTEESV

PDK1 [2] = target: T1, PDK1; remark: listed apart in the source
AKT1 [3] = target: T4, AKT1 (Homo sapiens, UniProt P31749)
T4 sequence (P31749 whole entry): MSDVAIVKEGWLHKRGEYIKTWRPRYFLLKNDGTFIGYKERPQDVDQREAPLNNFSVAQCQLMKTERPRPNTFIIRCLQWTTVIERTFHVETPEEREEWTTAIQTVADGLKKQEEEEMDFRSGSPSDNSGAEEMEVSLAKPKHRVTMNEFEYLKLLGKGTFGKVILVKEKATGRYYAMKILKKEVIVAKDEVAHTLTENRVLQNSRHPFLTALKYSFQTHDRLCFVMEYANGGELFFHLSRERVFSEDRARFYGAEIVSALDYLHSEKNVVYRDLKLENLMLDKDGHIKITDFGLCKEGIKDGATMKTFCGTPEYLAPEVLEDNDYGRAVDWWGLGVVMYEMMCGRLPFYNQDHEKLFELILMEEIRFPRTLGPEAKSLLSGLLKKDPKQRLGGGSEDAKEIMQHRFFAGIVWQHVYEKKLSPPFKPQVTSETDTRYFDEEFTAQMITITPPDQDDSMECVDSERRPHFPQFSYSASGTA

AKT1 [4] = target: T4, AKT1; remark: listed apart in the source

SMILES: CC(C)(C)C1=NN(c2cccc(Cl)c2)C(c2ccc(O)cc2)C1 (centres unmarked) [1h]
- PKCl % inhibn at 20 μM (PKCl): 43.5%
- NF-κB reporter gene assay % inhibin at 5 μM (NF-κB Pathway): 64.6%

SMILES: CC(C)(C)C1=NN(c2ccc(F)cc2)C(c2ccc(O)cc2)C1 (centres unmarked) [1b]
- NF-κB reporter gene assay % inhibin at 5 μM (NF-κB Pathway): 63.8%

SMILES: CC(C)(C)C1=NN(c2ccccc2Cl)C(c2ccc(O)cc2)C1 (centres unmarked) [1l]
- NF-κB reporter gene assay % inhibin at 5 μM (NF-κB Pathway): 23.5%
- cell-free assay % inhibin at 62.5 μM (Recombinant PKCζ): 57.1%

SMILES: CC(C)(C)C1=NN(c2ccc(F)c(F)c2)C(c2ccc(O)cc2)C1 (centres unmarked) [1s]
- PKCl % inhibn at 20 μM (PKCl): 23.7%

SMILES: CC(C)(C)C1=NN(c2ccc(Cl)cc2Cl)C(c2ccc(O)cc2)C1 (centres unmarked) [1n]
- NF-κB reporter gene assay % inhibin at 5 μM (NF-κB Pathway): 50.2%
- cell-free assay % inhibin at 62.5 μM (Recombinant PKCζ): 71.0%

SMILES: CC(C)c1ccc(N2N=C(C(C)(C)C)CC2c2ccc(O)cc2)cc1 (centres unmarked) [1f]
- cell-free assay % inhibin at 62.5 μM (Recombinant PKCζ): 54.9%

SMILES: CC(C)(C)c1cccc(-n2c(-c3cccnc3N)nc3cccnc32)c1 [Compound 3h]
- IC50 (AKT1 [3]): > 300 µM
- Akt1 ΔTm (AKT1 [4]): no shift

SMILES: Nc1ncccc1-c1nc2cccnc2n1-c1ccc(CNCc2ccccc2)cc1 [Compound 8h]
- Akt1 ΔTm (AKT1 [4]): 4.9 °C

SMILES: COc1ccccc1Cn1c(-c2cccnc2N)nc2cc(Br)cnc21 [Compound 3d]
- IC50 (AKT1 [3]): > 300 µM
- Akt1 ΔTm (AKT1 [4]): no shift

SMILES: CC(C)(C)C1=NN(c2ccc(F)cc2F)C(c2ccc(O)cc2)C1 (centres unmarked) [1o]
- NF-κB reporter gene assay % inhibin at 5 μM (NF-κB Pathway): 51.8%
- cell-free assay % inhibin at 62.5 μM (Recombinant PKCζ): 68.0%

SMILES: O=C(O)/C=C(/CCc1cccc(Cl)c1)c1ccccc1 [Compound 3Z]
- Amax (PDK1 [1]): 2.2 fold

SMILES: Nc1ncccc1-c1nc2cccnc2n1-c1cccc(CNC(=O)c2ccccc2)c1 [Compound 8g]
- Akt1 ΔTm (AKT1 [4]): no shift

SMILES: CC(C)(C)C1=NN(c2cccc(F)c2)C(c2ccc(O)cc2)C1 (centres unmarked) [1i]
- PKCl % inhibn at 20 μM (PKCl): 19.3%
- NF-κB reporter gene assay % inhibin at 5 μM (NF-κB Pathway): 73.5%

SMILES: CC(C)(C)c1ccc(-n2c(-c3ccncc3)nc3cccnc32)cc1 [Compound 3f]
- IC50 (AKT1 [3]): 185 µM
- Akt1 ΔTm (AKT1 [4]): no shift

SMILES: Cc1ccc(N2N=C(C(C)(C)C)CC2c2ccc(O)cc2)c(C)c1 (centres unmarked) [1p]
- NF-κB reporter gene assay % inhibin at 5 μM (NF-κB Pathway): 41.5%
- cell-free assay % inhibin at 62.5 μM (Recombinant PKCζ): 59.9%

Results, then the compound that gave them:

- AC50 (PDK1 [1]): n.e.
- Amax (PDK1 [1]): n.e.
SMILES: CCc1ccc(CC/C(=C\C(=O)O)c2ccccc2)cc1 [Compound 10E]

- AC50 (PDK1 [1]): n.e.
- Amax (PDK1 [1]): n.e.
SMILES: O=C(O)/C=C(\CCc1ccc(Cl)cc1Cl)c1ccccc1 [Compound 8E]

- Amax (PDK1 [1]): 3.2 fold
SMILES: O=C(O)/C=C(/CCc1ccc(-c2ccccc2)cc1)c1ccccc1 [Compound 11Z]

- Amax (PDK1 [1]): 1.4 fold
- AC50 (PDK1 [1]; read-out: AC50): > 30 µM
SMILES: CCc1ccc(CC/C(=C/C(=O)O)c2ccccc2)cc1 [Compound 10Z]

- ITC Ka (PDK1 [2]): 9.63E4 — M^-1
- ITC TΔS (PDK1 [2]): 2.60 kcal/mol
- ITC ΔG (PDK1 [2]): -6.73 kcal/mol
- ITC ΔH (PDK1 [2]): -4.09 kcal/mol
- ITC ΔH/ΔG (PDK1 [2]): 60.8%
- Amax (PDK1 [1]): 3.1 fold
SMILES: O=C(O)/C=C(/CCc1c[nH]c2ccccc12)c1ccccc1 [Compound 13Z]

- ITC Ka (PDK1 [2]): 7.26E4 — M^-1
- ITC TΔS (PDK1 [2]): 1.96 kcal/mol
- ITC ΔG (PDK1 [2]): -6.67 kcal/mol
- ITC ΔH (PDK1 [2]): -4.56 kcal/mol
- ITC ΔH/ΔG (PDK1 [2]): 68.3%
- Amax (PDK1 [1]): 3.5 fold
SMILES: O=C(O)/C=C(/CCc1ccc2ccccc2c1)c1ccccc1 [Compound 12Z]

- ITC Ka (PDK1 [2]): 1.71E5 — M^-1
- ITC TΔS (PDK1 [2]): 4.93 kcal/mol
- ITC ΔG (PDK1 [2]): -7.07 kcal/mol
- ITC ΔH (PDK1 [2]): -2.08 kcal/mol
- ITC ΔH/ΔG (PDK1 [2]): 29.5%
- Amax (PDK1 [1]): 2.1 fold
- AC50 (PDK1 [1]; read-out: AC50): 4.7 µM
SMILES: O=C(O)/C=C(/CCc1ccc(Cl)cc1Cl)c1ccccc1 [Compound 8Z]
